The target of one data set is A2A receptor (Homo sapiens, UniProt P29274). As to the kind of experiment: Inhibition of cAMP production in HEK cells. The format is cell-based. Particulars: HEK-293 cells with A2A receptor. (In general: Cyclic AMP is a second messenger, typically raised through Gs and lowered through Gi signalling.)
The nature of a further data set: in vitro. The conditions noted are these: human, Caco-2, pH 7.4.
Where [1] appears, read: IC50 (nM) (3 nM NECA as agonist, 0.1% BSA), 3 nM NECA as agonist, 0.1% BSA.
[2] abbreviates: IC50 (nM) (5 μM Adenosine as agonist, 2.0% HSA), 5 μM Adenosine as agonist, 2.0% HSA.
[3] abbreviates: IC50 (nM) (5 nM NECA as agonist, 2% HSA), 5 nM NECA as agonist, 2% HSA.

The structures appear in SMILES notation.

Sequence of A2A receptor (P29274 whole entry): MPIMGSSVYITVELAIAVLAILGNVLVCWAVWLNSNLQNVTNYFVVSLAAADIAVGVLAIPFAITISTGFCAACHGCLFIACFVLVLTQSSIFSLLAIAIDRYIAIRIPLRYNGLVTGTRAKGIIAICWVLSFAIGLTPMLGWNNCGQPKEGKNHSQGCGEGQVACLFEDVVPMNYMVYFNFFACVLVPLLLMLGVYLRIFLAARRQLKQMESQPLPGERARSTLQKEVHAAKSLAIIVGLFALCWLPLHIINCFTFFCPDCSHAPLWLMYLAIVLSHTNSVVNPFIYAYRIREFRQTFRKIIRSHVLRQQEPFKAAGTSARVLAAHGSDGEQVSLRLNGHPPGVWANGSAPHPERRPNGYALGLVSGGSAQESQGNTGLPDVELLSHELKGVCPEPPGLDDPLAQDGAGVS

`Nc1nc2c(sc(=O)n2CCN2CCN(c3ccc(O[C@H]4CNC[C@@H]4F)cc3F)CC2)c2nc(-c3ccco3)nn12` [Compound 102, 5-amino-3-(2-(4-(2-fluoro-4-(((3S,4S)-4-fluoropyrrolidin-3-yl)oxy)phenyl)piperazin-1-yl)ethyl)-8-(furan-2-yl)thiazolo[5,4-e][1,2,4]triazolo[1,5-c]pyrimidin-2(3H)-one]: the IC50 (commonly the point on the concentration scale where inhibition reaches its midpoint) is 0.7 nM on A2A receptor (setting [1]) and 185 nM at A2A receptor (setting [2]). Moreover, the efflux ratio (in general, the permeability from basolateral to apical divided by that in the opposite direction, in the common usage) at 120 min, 2 μM in “in vitro” was 91.
As for `Nc1nc2c(sc(=O)n2CCN2CCN(c3ccc(C(=O)NCC(O)CO)cc3F)CC2)c2nc(-c3ccco3)nn12` (stereo not drawn) [Compound 34, 4-(4-(2-(5-amino-8-(furan-2-yl)-2-oxothiazolo[5,4-e][1,2,4]triazolo[1,5-c]pyrimidin-3(2H)-yl)ethyl)piperazin-1-yl)-N-(2,3-dihydroxypropyl)-3-fluorobenzamide], the figures for the IC50 at A2A receptor (setting [1]), at A2A receptor (setting [3]) and on A2A receptor (setting [2]) were 0.3 nM, 6 nM and 207 nM, respectively. Moreover, the efflux ratio at 120 min, 2 μM in “in vitro” amounted to 192.
The matching figures for `C[C@H](CN(C)C)NC(=O)c1ccc(N2CCN(CCn3c(=O)sc4c3nc(N)n3nc(-c5ccco5)nc43)CC2)c(F)c1` [Compound 57, (R)-4-(4-(2-(5-amino-8-(furan-2-yl)-2-oxothiazolo[5,4-e][1,2,4]triazolo[1,5-c]pyrimidin-3(2H)-yl)ethyl)piperazin-1-yl)-N-(1-(dimethylamino)propan-2-yl)-3-fluorobenzamide]: 0.2 nM, 2 nM, 56 nM and 2200.
The matching figures for `CN(CCNC(=O)c1ccc(N2CCN(CCn3c(=O)sc4c3nc(N)n3nc(-c5ccco5)nc43)CC2)c(F)c1)C1COC1` [Compound 69, 4-(4-(2-(5-amino-8-(furan-2-yl)-2-oxothiazolo[5,4-e][1,2,4]triazolo[1,5-c]pyrimidin-3(2H)-yl)ethyl)piperazin-1-yl)-3-fluoro-N-(2-(methyl(oxetan-3-yl)amino)ethyl)benzamide]: 0.5 nM, 5 nM, 211 nM and 201.
With `C[S@@+]([O-])CCNC(=O)c1cc(N2CCN(CCn3c(=O)sc4c3nc(N)n3nc(-c5ccco5)nc43)CC2)c(F)cc1F` [Compound 114, (R)-5-(4-(2-(5-amino-8-(furan-2-yl)-2-oxothiazolo[5,4-e][1,2,4]triazolo[1,5-c]pyrimidin-3(2H)-yl)ethyl)piperazin-1-yl)-2,4-difluoro-N-(2-(methylsulfinyl)ethyl)benzamide], the IC50 on A2A receptor (setting [1]) was 0.3 nM; at A2A receptor (setting [2]) it was 80 nM. For the same compound, the efflux ratio at 120 min, 2 μM in “in vitro” amounted to 403.
Turning to `Nc1nc2c(sc(=O)n2CCN2CCN(c3ccc(OCC4COCCN4)cc3F)CC2)c2nc(-c3ccco3)nn12` (stereo not drawn) [Compound 99, 5-amino-3-(2-(4-(2-fluoro-4-(morpholin-3-ylmethoxy)phenyl)piperazin-1-yl)ethyl)-8-(furan-2-yl)thiazolo[5,4-e][1,2,4]triazolo[1,5-c]pyrimidin-2(3H)-one], the concentration for half-maximal inhibition (IC50) was determined as 0.5 nM on A2A receptor (setting [1]) and 64 nM on A2A receptor (setting [2]). The efflux ratio at 120 min, 2 μM in “in vitro” is 13.
The matching figures for `CC(C)(O)c1ccc(N2CCN(CCn3c(=O)sc4c3nc(N)n3nc(-c5ccco5)nc43)CC2)c(F)c1` [Compound 86, 5-amino-3-(2-(4-(2-fluoro-4-(2-hydroxypropan-2-yl)phenyl)piperazin-1-yl)ethyl)-8-(furan-2-yl)thiazolo[5,4-e][1,2,4]triazolo[1,5-c]pyrimidin-2(3H)-one]: 0.6 nM, 747 nM and 5.
For `Nc1nc2c(sc(=O)n2CCN2CCN(c3ccc(O[C@H]4CC[S@@+]([O-])CC4)cc3F)CC2)c2nc(-c3ccco3)nn12` (single isomer, unassigned) [Compound 121, 5-amino-3-(2-(4-(2-fluoro-4-(((1s,4s)-1-oxidotetrahydro-2H-thiopyran-4-yl)oxy)phenyl)piperazin-1-yl)ethyl)-8-(furan-2-yl)thiazolo[5,4-e][1,2,4]triazolo[1,5-c]pyrimidin-2(3H)-one], the half-maximal inhibitory concentration (IC50) amounted to 0.8 nM on A2A receptor (setting [1]) and 232 nM at A2A receptor (setting [2]). The efflux ratio at 120 min, 2 μM in the data set “in vitro” came out at 90.
Consider `CC(C)[C@H](N)C(=O)NCCOc1ccc(N2CCN(CCn3c(=O)sc4c3nc(N)n3nc(-c5ccco5)nc43)CC2)c(F)c1` [Compound 72, (S)-2-amino-N-(2-(4-(4-(2-(5-amino-8-(furan-2-yl)-2-oxothiazolo[5,4-e][1,2,4]triazolo[1,5-c]pyrimidin-3(2H)-yl)ethyl)piperazin-1-yl)-3-fluorophenoxy)ethyl)-3-methylbutanamide], for which the figures for the IC50 on A2A receptor (setting [1]), at A2A receptor (setting [3]) and on A2A receptor (setting [2]) were 1 nM, 3 nM and 86 nM, respectively. Besides, the efflux ratio at 120 min, 2 μM in the data set “in vitro” was 21.
`Nc1nc2c(sc(=O)n2CCN2CCN(c3cc(O[C@H]4CCNC4=O)c(F)cc3F)CC2)c2nc(-c3ccco3)nn12` [Compound 95, (S)-5-amino-3-(2-(4-(2,4-difluoro-5-((2-oxopyrrolidin-3-yl)oxy)phenyl)piperazin-1-yl)ethyl)-8-(furan-2-yl)thiazolo[5,4-e][1,2,4]triazolo[1,5-c]pyrimidin-2(3H)-one]: the IC50 was determined as 0.7 nM on A2A receptor (setting [1]) and 37 nM on A2A receptor (setting [2]). Moreover, in “in vitro”, the efflux ratio at 120 min, 2 μM turned out to be 137.
As to `Nc1nc2c(sc(=O)n2CCN2CCN(c3ccc(C(=O)NCCNCCO)cc3F)CC2)c2nc(-c3ccco3)nn12` [Compound 70, 4-(4-(2-(5-amino-8-(furan-2-yl)-2-oxothiazolo[5,4-e][1,2,4]triazolo[1,5-c]pyrimidin-3(2H)-yl)ethyl)piperazin-1-yl)-3-fluoro-N-(2-((2-hydroxyethyl)amino)ethyl)benzamide], the IC50 stood at 0.6 nM at A2A receptor (setting [1]), 3 nM at A2A receptor (setting [3]) and 124 nM at A2A receptor (setting [2]). For the same compound, the efflux ratio at 120 min, 2 μM in “in vitro” was 53.
As to `Nc1nc2c(sc(=O)n2CCN2CCN(c3cc(OCCO)ccc3F)CC2)c2nc(-c3ccco3)nn12` [Compound 88, 5-amino-3-(2-(4-(2-fluoro-5-(2-hydroxyethoxy)phenyl)piperazin-1-yl)ethyl)-8-(furan-2-yl)thiazolo[5,4-e][1,2,4]triazolo[1,5-c]pyrimidin-2(3H)-one], the IC50 at A2A receptor (setting [1]) worked out at 0.2 nM; on A2A receptor (setting [2]), 22 nM. Besides, in “in vitro”, the efflux ratio at 120 min, 2 μM turned out to be 19.
For `C[S@+]([O-])CCOc1ccc(N2CCN(CCn3c(=O)sc4c3nc(N)n3nc(-c5ccco5)nc43)CC2)c(F)c1` (single isomer, unassigned) [Compound 5], the IC50 at A2A receptor (setting [1]) came out at 0.4 nM; at A2A receptor (setting [3]), 8 nM; on A2A receptor (setting [2]), 241 nM. Further, in the data set “in vitro”, the efflux ratio at 120 min, 2 μM came out at 67.
As to `Nc1nc2c(sc(=O)n2CCN2CCN(c3cc(O[C@H]4CC[S@+]([O-])CC4)c(F)cc3F)CC2)c2nc(-c3ccco3)nn12` [Compound 112, 5-amino-3-(2-(4-(2,4-difluoro-5-(((1r,4r)-1-oxidotetrahydro-2H-thiopyran-4-yl)oxy)phenyl)piperazin-1-yl)ethyl)-8-(furan-2-yl)thiazolo[5,4-e][1,2,4]triazolo[1,5-c]pyrimidin-2(3H)-one], the IC50 was 0.8 nM at A2A receptor (setting [1]) and 53 nM on A2A receptor (setting [2]). In the data set “in vitro”, the efflux ratio at 120 min, 2 μM worked out at 605.
